# Test system: patients having melanoma with NRAS mutation and solid tumors with BRAF V600 and non-V600 mutants
# Assay: not given
# Settings: 600 mg twice a day; cited from earlier work
Structure (SMILES),efficacy in patients,safety in patients
"CC(C)Nc1cc(-c2c[nH]c(C(=O)N[C@H](CO)c3cccc(Cl)c3)c2)c(Cl)cn1 [BVD-523, Ulixertinib]",lasting efficacy,acceptable safety

# Target: ERK2 kinase (Homo sapiens (Human), UniProt P28482)
# Assay: In vitro enzyme activity assay, ERK2 kinase (Z'-LYTE)
# Type: biochemical
# Settings: class symbols; read-out: ERK2 IC50
# Description: Half inhibitory activity of the compounds of the invention against ERK2 kinase (IC50 value) was determined in this Example.
# • Enzyme: extracellular signal-regulated kinase ERK2 kinase (PV3595, Invitrogen) • Kit: Z′-LYTE® Protein Kinase Assay Kit-Ser/Thr 3 Peptide (PV3176, Invitrogen) • Kit components: The substrate Z′-LYTE™ Ser/Thr 3 Peptide (PV3200) • The phosphorylation substrate Z′-LYTE™ Ser/Thr 3 Phospho-peptide (PV3215) • 5× kinase buffer: 250 mM HEPES (pH 7.5), 50 mM MgCl2, • 5 mM EGTA, 0.05% BRIJ-35 (PV3189, Invitrogen) • ATP (PV3227, Invitrogen) • Development Reagent A (PV3295, Invitrogen) • Development Buffer (P3127, Invitrogen) • Stop Reagent (P3094, Invitrogen) • Microplate reader: The multil-mode microplate reader PerkinElmer EnVision® • Microplate: black shallow 384-well microplate (6008269, PerkinElmer) (2). Assay Protocol:
# The substrate Z′-LYTE™ Ser/Thr 3 Peptide, the phosphorylation substrate Z′-LYTE™ Ser/Thr 3 Phospho-peptide, 1× kinase buffer (5× kinase buffer was diluted with ultra pure water by five times), ATP, Development Reagent A, Development Buffer, Stop Reagent were balanced to room temperature for use. The screening concentrations for detecting the effect of the compounds of the invention on the ERK kinase activity were seven 3-fold serial dilutions starting from 1 μM (from 0.2 μM for the positive drug control) using 4% DMSO as co-solvent. 5 μL enzyme system (50 mM HEPES pH 7.5, 1 mM EGTA, 10 mM MgCl2, 0.01% Brij-35, 4 uM substrate, 0.8 ng/μL enzyme), 2.5 μL Compound, 2.5 μL 400 μM ATP were added into 384 well microplate, followed by incubation at room temperature for 60 min in the dark. After the reaction was completed, 5 μl the developing agent (Development Reagent A) diluted with the developing buffer (Development Buffer) was added to all reaction wells, followed by incubation at the room temperature for 60 min in the dark. 5 μL the terminating agent was added to each well to terminate the reaction. The fluorescence was determined using the multil-mode microplate reader PerkinElmer EnVision® (excitation wavelength 400 nm, emission wavelength 460 nm and 528 nm).
# The inhibition rate of each well was calculated from 100% phosphorylation substrate well and 0% phosphorylation substrate well using the data analysis method below: phosphorylation %=1−{(emission rate×F100%−C100%)/[C0%−C100%+emission rate×(F100%−F0%)]}×100 inhibition %=100×(1−phosphorylation % of the test compound well/phosphorylation % of the 0% inhibition control) • wherein: • emission rate=fluorescence emission of the sample at 445 nm/fluorescence emission of the sample at 520 nm • F100%=the average fluorescence emission of the control well of 100% phosphorylation substrate at 520 nm • F0%=the average fluorescence emission of the control well of 0% phosphorylation substrate at 520 nm • C100%=the average fluorescence emission of the control well of 100% phosphorylation substrate at 445 nm • C0%=the average fluorescence emission of the control well of 0% phosphorylation substrate at 445 nm
# Tests were carried out in duplicate. IC50 values were calculated from the inhibition of the kinase by the test compounds at a range of different concentrations.
# ERK2 kinase, sequence (P28482 whole entry): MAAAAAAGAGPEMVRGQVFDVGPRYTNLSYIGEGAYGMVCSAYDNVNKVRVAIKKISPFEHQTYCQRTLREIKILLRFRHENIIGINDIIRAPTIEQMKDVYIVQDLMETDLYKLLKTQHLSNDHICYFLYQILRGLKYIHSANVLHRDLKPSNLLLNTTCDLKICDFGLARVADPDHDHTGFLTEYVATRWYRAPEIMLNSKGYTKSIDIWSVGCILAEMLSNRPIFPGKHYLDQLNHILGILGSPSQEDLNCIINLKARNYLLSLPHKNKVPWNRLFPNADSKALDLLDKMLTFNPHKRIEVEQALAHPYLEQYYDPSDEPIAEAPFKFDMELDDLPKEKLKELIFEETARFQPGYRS
row,Structure (SMILES),IC50 [nM]
1,"Cn1nccc1Nc1nccc(-c2cc(F)c3c(c2)CCN3C(=O)Cc2ccncc2Cl)n1 [Example P37, 2-(3-chloropyridin-4-yl)-1-(7-fluoro-5-(2-((1-methyl-1H-pyrazol-5-yl)amino)pyrimidin-4-yl)indolin-1-yl)ethan-1-one]",10 to 100
2,"Cn1nccc1Nc1nccc(-c2cc(F)c3c(c2)CCN3C(=O)Cc2cc(F)ccc2Cl)n1 [Example P38, 2-(2-chloro-5-fluorophenyl)-1-(7-fluoro-5-(2-((1-methyl-1H-pyrazol-5-yl)amino)pyrimidin-4-yl)indolin-1-yl)ethan-1-one]",10 to 100
3,"Cn1nccc1Nc1nccc(-c2cc(F)c3c(c2)CCN3C(=O)Cc2cc(F)ccc2F)n1 [Example P39, 2-(2,5-difluorophenyl)-1-(7-fluoro-5-(2-((1-methyl-1H-pyrazol-5-yl)amino)pyrimidin-4-yl)indolin-1-yl)ethan-1-one]",100 to 1000
4,"Cc1cnc(Nc2ccnn2C)nc1-c1cc(F)c2c(c1)CCN2C(=O)Cc1cccnc1Cl [Example P47, 2-(2-chloropyridin-3-yl)-1-(7-fluoro-5-(5-methyl-2-((1-methyl-1H-pyrazol-5-yl)amino)pyrimidin-4-yl)indolin-1-yl)ethan-1-one]",≤ 10
5,"Cc1cnc(Nc2ccnn2C)nc1-c1cc(F)c2c(c1)CC(C)N2C(=O)Cc1cccnc1Cl (stereo not shown) [Example P48, 2-(2-chloropyridin-3-yl)-1-(7-fluoro-2-methyl-5-(5-methyl-2-((1-methyl-1H-pyrazol-5-yl)amino)pyrimidin-4-yl)indolin-1-yl)ethan-1-one]",≤ 10
6,"COCC1Cc2cc(-c3nc(Nc4ccnn4C)ncc3C)cc(F)c2N1C(=O)Cc1cccnc1Cl (stereo not shown) [Example P49, 2-(2-chloropyridin-3-yl)-1-(7-fluoro-2-(methoxymethyl)-5-(5-methyl-2-((1-methyl-1H-pyrazol-5-yl)amino)pyrimidin-4-yl)indolin-1-yl)ethan-1-one]",≤ 10
7,"Cn1nccc1Nc1nccc(-c2cc(F)c3c(c2F)CCN3C(=O)Cc2cccnc2Cl)n1 [Example P50, 2-(2-chloropyridin-3-yl)-1-(4,7-difluoro-5-(2-((1-methyl-1H-pyrazol-5-yl)amino)pyrimidin-4-yl)indolin-1-yl)ethan-1-one]",100 to 1000
8,"Cn1nccc1Nc1nccc(-c2cc(F)c3c(c2)CCN3C(=O)Cc2cccc(F)c2Cl)n1 [Example P54, 2-(2-chloro-3-fluorophenyl)-1-(7-fluoro-5-(2-((1-methyl-1H-pyrazol-5-yl)amino)pyrimidin-4-yl)indolin-1-yl)ethan-1-one]",10 to 100
9,"Cn1nccc1Nc1nccc(-c2cc(F)c3c(c2)CCN3C(=O)Cc2cnccc2Cl)n1 [Example P56, 2-(4-chloropyridin-3-yl)-1-(7-fluoro-5-(2-((1-methyl-1H-pyrazol-5-yl)amino)pyrimidin-4-yl)indolin-1-yl)ethan-1-one]",10 to 100
10,"COCC1Cc2cc(-c3ccnc(Nc4ccnn4C)c3)cc(F)c2N1C(=O)Cc1cccnc1Cl (stereo not shown) [Example P58, 2-(2-chloropyridin-3-yl)-1-(7-fluoro-2-(methoxymethyl)-5-(2-((1-methyl-1H-pyrazol-5-yl)amino)pyridin-4-yl)indolin-1-yl)ethan-1-one]",≤ 10

# Results, then the compound that gave them:
row,IC50 [nM],Structure (SMILES)
1,10 to 100,O=C(Cc1cccnc1Cl)N1CCc2cc(-c3ccnc(N[C@H]4C[C@@H](O)C4)c3)cc(F)c21 [Example P40]
2,10 to 100,"Cn1nccc1Nc1cc(-c2cc(F)c3c(c2)CCN3C(=O)Cc2cccnc2Cl)ncn1 [Example P44, 2-(2-chloropyridin-3-yl)-1-(7-fluoro-5-(6-((1-methyl-1H-pyrazol-5-yl)amino)pyrimidin-4-yl)indolin-1-yl)ethan-1-one]"
3,≤ 10,"Cc1ncccc1CC(=O)N1CCc2cc(-c3ccnc(Nc4ccnn4C)c3)cc(F)c21 [Example P45, 1-(7-fluoro-5-(2-((1-methyl-1H-pyrazol-5-yl)amino)pyridin-4-yl)indolin-1-yl)-2-(2-methylpyridin-3-yl)ethan-1-one]"
4,≤ 10,"[2H]C([2H])([2H])n1nccc1Nc1cc(-c2cc(F)c3c(c2)CCN3C(=O)Cc2cccnc2Cl)ccn1 [Example P46, 2-(2-chloropyridin-3-yl)-1-(7-fluoro-5-(2-((1-(deuteriomethyl)-1H-pyrazol-5-yl)amino)pyridin-4-yl)indolin-1-yl)ethan-1-one]"
5,10 to 100,"Cn1nccc1Nc1cc(-c2cc(F)c3c(c2)CCN3C(=O)CCc2cccnc2Cl)ccn1 [Example P55, 3-(2-chloropyridin-3-yl)-1-(7-fluoro-5-(2-((1-methyl-1H-pyrazol-5-yl)amino)pyridin-4-yl)indolin-1-yl)propan-1-one]"
6,100 to 1000,"Cn1nccc1Nc1cc(-c2cc(F)c3c(c2)CCN3C(=O)Cc2cccnc2C2CCOCC2)ccn1 [Example P57, 1-(7-fluoro-5-(2-((1-methyl-1H-pyrazol-5-yl)amino)pyridin-4-yl)indolin-1-yl)-2-(2-(tetrahydro-2H-pyran-4-yl)pyridin-3-yl)ethan-1-one]"
7,10 to 100,"O=C(Cc1cccnc1Cl)N1CCc2cc(-c3ccnc(NC4CC4)c3)cc(F)c21 [Example P61, 2-(2-chloropyridin-3-yl)-1-(5-(2-(cyclopropylamino)pyridin-4-yl)-7-fluoroindolin-1-yl)ethan-1-one]"

# Same assay, conditions: read-out: IC50 against ERK2 kinase
row,IC50 [nM],Structure (SMILES)
1,2.7,C[C@H]1Cc2cc(-c3ccnc(Nc4ccnn4C)c3)cc(F)c2N1C(=O)Cc1cccnc1Cl [Example P42]
2,4.8,"CC1CN(C(=O)Cc2cccnc2Cl)c2c(F)cc(-c3ccnc(Nc4ccnn4C)c3)cc21 (stereo not shown) [Example P59, 2-(2-chloropyridin-3-yl)-1-(7-fluoro-3-methyl-5-(2-((1-methyl-1H-pyrazol-5-yl)amino)pyridin-4-yl)indolin-1-yl)ethan-1-one]"
3,10,"Cn1nccc1Nc1cc(-c2cc(F)c3c(c2)CCN3C(=O)C(O)c2cccnc2Cl)ccn1 (stereo not shown) [Example P60, 2-(2-chloropyridin-3-yl)-1-(7-fluoro-5-(2-((1-methyl-1H-pyrazol-5-yl)amino)pyridin-4-yl)indolin-1-yl)-2-hydroxylethan-1-one]"
